Assay results reported in US20230017045A1, “PYRIDINE AND PYRIMIDINE CARBOXYLATE HERBICIDES AND METHODS OF USE THEREOF” (Dow AgroSciences LLC, priority 2017, published 2023).

What follows are compounds tested on test plant species (assay: Post-emergent herbicidal activity test (greenhouse, foliar spray, visual growth reduction)). Settings: post-emergence, 336 h, ECHCG: barnyardgrass (Echinochloa crus-galli), 140 g ai/ha, 14 days after application, read-out: Visual Growth Reduction (%) 14 Days After Application, ECHCG.
Assay type: in vivo
Outline: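 Scoring used a 0 to 100 percent visual scale of growth reduction against solvent-treated controls, read 14 d after spraying. Applications went onto plants at first or second true leaf stage, 187 L/ha, with crop oil concentrate and X-77 surfactant in the carrier. Post-treatment watering was by subirrigation to avoid wash-off.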

| Compound | pest or weed control at 140 g/ha [%] |
| --- | --- |
| COC(=O)c1nc(-c2ccc(C3(C#N)CC3)cc2Cl)c(F)cc1Cl [F237, Methyl 3-chloro-6-(2-chloro-4-(1-cyanocyclopropyl)phenyl)-5-fluoropicolinate] | 30 to 44 |
| COC(=O)c1nc(-c2ccc(Cl)c(C(C)F)c2Cl)ccc1Cl (stereo not drawn) [F282, Methyl 3-chloro-6-(2,4-dichloro-3-(1-fluoroethyl)phenyl) picolinate] | 0 to 29 |
| COC(=O)c1nc(-c2ccc(C3(C#N)CC3)cc2Cl)ccc1Cl [F236, Methyl 3-chloro-6-(2-chloro-4-(1-cyanocyclopropyl)phenyl)picolinate] | 0 to 29 |

Same assay, conditions: post-emergence, 336 h, IPOHE: ivy-leaf morning glory (Ipomoea hederacea), 140 g ai/ha, 14 days after application, read-out: Visual Growth Reduction (%) 14 Days After Application, IPOHE

| Compound | pest or weed control at 140 g/ha [%] |
| --- | --- |
| COC(=O)c1nc(-c2ccc(C3(C#N)CC3)cc2Cl)c(F)cc1Cl [F237, Methyl 3-chloro-6-(2-chloro-4-(1-cyanocyclopropyl)phenyl)-5-fluoropicolinate] | 95 to 100 |
| COC(=O)c1nc(-c2ccc(Cl)c(C(C)F)c2Cl)ccc1Cl (stereo not drawn) [F282, Methyl 3-chloro-6-(2,4-dichloro-3-(1-fluoroethyl)phenyl) picolinate] | 45 to 59 |
| COC(=O)c1nc(-c2ccc(C3(C#N)CC3)cc2Cl)ccc1Cl [F236, Methyl 3-chloro-6-(2-chloro-4-(1-cyanocyclopropyl)phenyl)picolinate] | 95 to 100 |

Same assay, conditions: post-emergence, 336 h, KCHSC: kochia (Bassia scoparia), 140 g ai/ha, 14 days after application, read-out: Visual Growth Reduction (%) 14 Days After Application, KCHSC

| Compound | pest or weed control at 140 g/ha [%] |
| --- | --- |
| COC(=O)c1nc(-c2ccc(C3(C#N)CC3)cc2Cl)c(F)cc1Cl [F237, Methyl 3-chloro-6-(2-chloro-4-(1-cyanocyclopropyl)phenyl)-5-fluoropicolinate] | 85 to 94 |
| COC(=O)c1nc(-c2ccc(Cl)c(C(C)F)c2Cl)ccc1Cl (stereo not drawn) [F282, Methyl 3-chloro-6-(2,4-dichloro-3-(1-fluoroethyl)phenyl) picolinate] | 0 to 29 |
| COC(=O)c1nc(-c2ccc(C3(C#N)CC3)cc2Cl)ccc1Cl [F236, Methyl 3-chloro-6-(2-chloro-4-(1-cyanocyclopropyl)phenyl)picolinate] | 75 to 84 |

Same assay, conditions: post-emergence, 336 h, ORYSA: rice (Oryza sativa), 140 g ai/ha, 14 days after application, read-out: Visual Growth Reduction (%) 14 Days After Application, ORYSA

| Compound | pest or weed control at 140 g/ha [%] |
| --- | --- |
| COC(=O)c1nc(-c2ccc(C3(C#N)CC3)cc2Cl)c(F)cc1Cl [F237, Methyl 3-chloro-6-(2-chloro-4-(1-cyanocyclopropyl)phenyl)-5-fluoropicolinate] | 0 to 29 |
| COC(=O)c1nc(-c2ccc(Cl)c(C(C)F)c2Cl)ccc1Cl (stereo not drawn) [F282, Methyl 3-chloro-6-(2,4-dichloro-3-(1-fluoroethyl)phenyl) picolinate] | 0 to 29 |
| COC(=O)c1nc(-c2ccc(C3(C#N)CC3)cc2Cl)ccc1Cl [F236, Methyl 3-chloro-6-(2-chloro-4-(1-cyanocyclopropyl)phenyl)picolinate] | 0 to 29 |

Same assay, conditions: post-emergence, 336 h, SETFA: giant foxtail (Setaria faberi), 140 g ai/ha, 14 days after application, read-out: Visual Growth Reduction (%) 14 Days After Application, SETFA

| Compound | pest or weed control at 140 g/ha [%] |
| --- | --- |
| COC(=O)c1nc(-c2ccc(C3(C#N)CC3)cc2Cl)c(F)cc1Cl [F237, Methyl 3-chloro-6-(2-chloro-4-(1-cyanocyclopropyl)phenyl)-5-fluoropicolinate] | 75 to 84 |
| COC(=O)c1nc(-c2ccc(Cl)c(C(C)F)c2Cl)ccc1Cl (stereo not drawn) [F282, Methyl 3-chloro-6-(2,4-dichloro-3-(1-fluoroethyl)phenyl) picolinate] | 0 to 29 |
| COC(=O)c1nc(-c2ccc(C3(C#N)CC3)cc2Cl)ccc1Cl [F236, Methyl 3-chloro-6-(2-chloro-4-(1-cyanocyclopropyl)phenyl)picolinate] | 75 to 84 |

Same assay, conditions: post-emergence, 336 h, SORVU: grain sorghum (Sorghum vulgare), 140 g ai/ha, 14 days after application, read-out: Visual Growth Reduction (%) 14 Days After Application, SORVU

| Compound | pest or weed control at 140 g/ha [%] |
| --- | --- |
| COC(=O)c1nc(-c2ccc(C3(C#N)CC3)cc2Cl)c(F)cc1Cl [F237, Methyl 3-chloro-6-(2-chloro-4-(1-cyanocyclopropyl)phenyl)-5-fluoropicolinate] | 85 to 94 |
| COC(=O)c1nc(-c2ccc(Cl)c(C(C)F)c2Cl)ccc1Cl (stereo not drawn) [F282, Methyl 3-chloro-6-(2,4-dichloro-3-(1-fluoroethyl)phenyl) picolinate] | 0 to 29 |
| COC(=O)c1nc(-c2ccc(C3(C#N)CC3)cc2Cl)ccc1Cl [F236, Methyl 3-chloro-6-(2-chloro-4-(1-cyanocyclopropyl)phenyl)picolinate] | 75 to 84 |

Same assay, conditions: post-emergence, 336 h, STEME: common chickweed (Stellaria media), 140 g ai/ha, 14 days after application, read-out: Visual Growth Reduction (%) 14 Days After Application, STEME

| Compound | pest or weed control at 140 g/ha [%] |
| --- | --- |
| COC(=O)c1nc(-c2ccc(C3(C#N)CC3)cc2Cl)c(F)cc1Cl [F237, Methyl 3-chloro-6-(2-chloro-4-(1-cyanocyclopropyl)phenyl)-5-fluoropicolinate] | 30 to 44 |
| COC(=O)c1nc(-c2ccc(Cl)c(C(C)F)c2Cl)ccc1Cl (stereo not drawn) [F282, Methyl 3-chloro-6-(2,4-dichloro-3-(1-fluoroethyl)phenyl) picolinate] | 0 to 29 |
| COC(=O)c1nc(-c2ccc(C3(C#N)CC3)cc2Cl)ccc1Cl [F236, Methyl 3-chloro-6-(2-chloro-4-(1-cyanocyclopropyl)phenyl)picolinate] | 45 to 59 |

Same assay, conditions: post-emergence, 336 h, TRZAS: wheat, spring (Triticum aestivum), 140 g ai/ha, 14 days after application, read-out: Visual Growth Reduction (%) 14 Days After Application, TRZAS

| Compound | pest or weed control at 140 g/ha [%] |
| --- | --- |
| COC(=O)c1nc(-c2ccc(C3(C#N)CC3)cc2Cl)c(F)cc1Cl [F237, Methyl 3-chloro-6-(2-chloro-4-(1-cyanocyclopropyl)phenyl)-5-fluoropicolinate] | 45 to 59 |
| COC(=O)c1nc(-c2ccc(Cl)c(C(C)F)c2Cl)ccc1Cl (stereo not drawn) [F282, Methyl 3-chloro-6-(2,4-dichloro-3-(1-fluoroethyl)phenyl) picolinate] | 0 to 29 |
| COC(=O)c1nc(-c2ccc(C3(C#N)CC3)cc2Cl)ccc1Cl [F236, Methyl 3-chloro-6-(2-chloro-4-(1-cyanocyclopropyl)phenyl)picolinate] | 0 to 29 |

Same assay, conditions: post-emergence, 336 h, blackgrass (Alopecurus myosuroides), 14 Days After Application, 140 g ai/ha, read-out: Visual Growth Reduction (%) ALOMY

| Compound | pest or weed control at 140 g/ha [%] |
| --- | --- |
| COC(=O)c1nc(-c2ccc(C3(C#N)CC3)cc2Cl)c(F)cc1Cl [F237, Methyl 3-chloro-6-(2-chloro-4-(1-cyanocyclopropyl)phenyl)-5-fluoropicolinate] | 0 to 29 |
| COC(=O)c1nc(-c2ccc(Cl)c(C(C)F)c2Cl)ccc1Cl (stereo not drawn) [F282, Methyl 3-chloro-6-(2,4-dichloro-3-(1-fluoroethyl)phenyl) picolinate] | 0 to 29 |
| COC(=O)c1nc(-c2ccc(C3(C#N)CC3)cc2Cl)ccc1Cl [F236, Methyl 3-chloro-6-(2-chloro-4-(1-cyanocyclopropyl)phenyl)picolinate] | 0 to 29 |

Same assay, conditions: post-emergence, 336 h, canada thistle (Cirsium arvense), 14 Days After Application, 140 g ai/ha, read-out: Visual Growth Reduction (%) CIRAR

| Compound | pest or weed control at 140 g/ha [%] |
| --- | --- |
| COC(=O)c1nc(-c2ccc(C3(C#N)CC3)cc2Cl)c(F)cc1Cl [F237, Methyl 3-chloro-6-(2-chloro-4-(1-cyanocyclopropyl)phenyl)-5-fluoropicolinate] | 95 to 100 |
| COC(=O)c1nc(-c2ccc(Cl)c(C(C)F)c2Cl)ccc1Cl (stereo not drawn) [F282, Methyl 3-chloro-6-(2,4-dichloro-3-(1-fluoroethyl)phenyl) picolinate] | 60 to 74 |
| COC(=O)c1nc(-c2ccc(C3(C#N)CC3)cc2Cl)ccc1Cl [F236, Methyl 3-chloro-6-(2-chloro-4-(1-cyanocyclopropyl)phenyl)picolinate] | 85 to 94 |

Same assay, conditions: post-emergence, 336 h, crabgrass (Digitaria sanguinalis), 14 Days After Application, 140 g ai/ha, read-out: Visual Growth Reduction (%) DIGSA

| Compound | pest or weed control at 140 g/ha [%] |
| --- | --- |
| COC(=O)c1nc(-c2ccc(C3(C#N)CC3)cc2Cl)c(F)cc1Cl [F237, Methyl 3-chloro-6-(2-chloro-4-(1-cyanocyclopropyl)phenyl)-5-fluoropicolinate] | 85 to 94 |
| COC(=O)c1nc(-c2ccc(Cl)c(C(C)F)c2Cl)ccc1Cl (stereo not drawn) [F282, Methyl 3-chloro-6-(2,4-dichloro-3-(1-fluoroethyl)phenyl) picolinate] | 0 to 29 |
| COC(=O)c1nc(-c2ccc(C3(C#N)CC3)cc2Cl)ccc1Cl [F236, Methyl 3-chloro-6-(2-chloro-4-(1-cyanocyclopropyl)phenyl)picolinate] | 75 to 84 |

Same assay, conditions: post-emergence, 336 h, lambsquarters (Chenopodium album), 14 Days After Application, 140 g ai/ha, read-out: Visual Growth Reduction (%) CHEAL

| Compound | pest or weed control at 140 g/ha [%] |
| --- | --- |
| COC(=O)c1nc(-c2ccc(C3(C#N)CC3)cc2Cl)c(F)cc1Cl [F237, Methyl 3-chloro-6-(2-chloro-4-(1-cyanocyclopropyl)phenyl)-5-fluoropicolinate] | 85 to 94 |
| COC(=O)c1nc(-c2ccc(Cl)c(C(C)F)c2Cl)ccc1Cl (stereo not drawn) [F282, Methyl 3-chloro-6-(2,4-dichloro-3-(1-fluoroethyl)phenyl) picolinate] | 85 to 94 |
| COC(=O)c1nc(-c2ccc(C3(C#N)CC3)cc2Cl)ccc1Cl [F236, Methyl 3-chloro-6-(2-chloro-4-(1-cyanocyclopropyl)phenyl)picolinate] | 85 to 94 |

Same assay, conditions: post-emergence, 336 h, redroot pigweed (Amaranthus retroflexus), 14 Days After Application, 140 g ai/ha, read-out: Visual Growth Reduction (%) AMARE

| Compound | pest or weed control at 140 g/ha [%] |
| --- | --- |
| COC(=O)c1nc(-c2ccc(C3(C#N)CC3)cc2Cl)c(F)cc1Cl [F237, Methyl 3-chloro-6-(2-chloro-4-(1-cyanocyclopropyl)phenyl)-5-fluoropicolinate] | 95 to 100 |
| COC(=O)c1nc(-c2ccc(Cl)c(C(C)F)c2Cl)ccc1Cl (stereo not drawn) [F282, Methyl 3-chloro-6-(2,4-dichloro-3-(1-fluoroethyl)phenyl) picolinate] | 45 to 59 |
| COC(=O)c1nc(-c2ccc(C3(C#N)CC3)cc2Cl)ccc1Cl [F236, Methyl 3-chloro-6-(2-chloro-4-(1-cyanocyclopropyl)phenyl)picolinate] | 30 to 44 |

Same assay, conditions: post-emergence, 336 h, wild oat (Avena fatua), 14 Days After Application, 140 g ai/ha, read-out: Visual Growth Reduction (%) AVEFA

| Compound | pest or weed control at 140 g/ha [%] |
| --- | --- |
| COC(=O)c1nc(-c2ccc(C3(C#N)CC3)cc2Cl)c(F)cc1Cl [F237, Methyl 3-chloro-6-(2-chloro-4-(1-cyanocyclopropyl)phenyl)-5-fluoropicolinate] | 45 to 59 |
| COC(=O)c1nc(-c2ccc(Cl)c(C(C)F)c2Cl)ccc1Cl (stereo not drawn) [F282, Methyl 3-chloro-6-(2,4-dichloro-3-(1-fluoroethyl)phenyl) picolinate] | 0 to 29 |
| COC(=O)c1nc(-c2ccc(C3(C#N)CC3)cc2Cl)ccc1Cl [F236, Methyl 3-chloro-6-(2-chloro-4-(1-cyanocyclopropyl)phenyl)picolinate] | 0 to 29 |

Same assay, conditions: post-emergence, 336 h, yellow nutsedge (Cyperus esculentus), 14 Days After Application, 140 g ai/ha, read-out: Visual Growth Reduction (%) CYPES

| Compound | pest or weed control at 140 g/ha [%] |
| --- | --- |
| COC(=O)c1nc(-c2ccc(C3(C#N)CC3)cc2Cl)c(F)cc1Cl [F237, Methyl 3-chloro-6-(2-chloro-4-(1-cyanocyclopropyl)phenyl)-5-fluoropicolinate] | 45 to 59 |
| COC(=O)c1nc(-c2ccc(Cl)c(C(C)F)c2Cl)ccc1Cl (stereo not drawn) [F282, Methyl 3-chloro-6-(2,4-dichloro-3-(1-fluoroethyl)phenyl) picolinate] | 0 to 29 |
| COC(=O)c1nc(-c2ccc(C3(C#N)CC3)cc2Cl)ccc1Cl [F236, Methyl 3-chloro-6-(2-chloro-4-(1-cyanocyclopropyl)phenyl)picolinate] | 0 to 29 |
